Assay: excess molar enthalpy (molar enthalpy of mixing); xn = mol fraction of the nth substance listed
Details: 101 kPa, Liquid, Calvet calorimetry

CC(O)CN (stereo unspecified) [1-amino-2-propanol] + O
Details | excess molar enthalpy [kcal/mol]
298.15 K, x1 = 0.03 | -0.119
298.15 K, x1 = 0.0501 | -0.186
298.15 K, x1 = 0.0697 | -0.241
298.15 K, x1 = 0.1002 | -0.324
298.15 K, x1 = 0.1505 | -0.419
298.15 K, x1 = 0.2012 | -0.488
298.15 K, x1 = 0.2994 | -0.572
298.15 K, x1 = 0.3496 | -0.593
298.15 K, x1 = 0.3993 | -0.592
298.15 K, x1 = 0.4465 | -0.579
298.15 K, x1 = 0.494 | -0.554
298.15 K, x1 = 0.6033 | -0.481
298.15 K, x1 = 0.7155 | -0.365
298.15 K, x1 = 0.7954 | -0.27
298.15 K, x1 = 0.8847 | -0.173
313.15 K, x1 = 0.0304 | -0.134
313.15 K, x1 = 0.0701 | -0.253
313.15 K, x1 = 0.1001 | -0.326
313.15 K, x1 = 0.15 | -0.421
313.15 K, x1 = 0.1999 | -0.491
313.15 K, x1 = 0.3021 | -0.584
313.15 K, x1 = 0.352 | -0.601
313.15 K, x1 = 0.4015 | -0.598
313.15 K, x1 = 0.5022 | -0.556
313.15 K, x1 = 0.591 | -0.487
313.15 K, x1 = 0.692 | -0.392
313.15 K, x1 = 0.7864 | -0.283
313.15 K, x1 = 0.8808 | -0.174
323.15 K, x1 = 0.0301 | -0.114
323.15 K, x1 = 0.05 | -0.171
323.15 K, x1 = 0.0705 | -0.244
323.15 K, x1 = 0.0999 | -0.308
323.15 K, x1 = 0.1507 | -0.401
323.15 K, x1 = 0.1993 | -0.473
323.15 K, x1 = 0.2999 | -0.551
323.15 K, x1 = 0.3533 | -0.577
323.15 K, x1 = 0.4045 | -0.587
323.15 K, x1 = 0.507 | -0.554
323.15 K, x1 = 0.5849 | -0.497
323.15 K, x1 = 0.6741 | -0.42
323.15 K, x1 = 0.8125 | -0.261
323.15 K, x1 = 0.9073 | -0.144

CNCCO [2-(methylamino)ethanol] + O
Details | excess molar enthalpy [kcal/mol]
298.15 K, x1 = 0.0302 | -0.127
298.15 K, x1 = 0.0514 | -0.216
298.15 K, x1 = 0.0695 | -0.278
298.15 K, x1 = 0.1002 | -0.354
298.15 K, x1 = 0.1485 | -0.459
298.15 K, x1 = 0.1992 | -0.536
298.15 K, x1 = 0.3021 | -0.638
298.15 K, x1 = 0.3471 | -0.657
298.15 K, x1 = 0.3996 | -0.653
298.15 K, x1 = 0.4471 | -0.637
298.15 K, x1 = 0.5017 | -0.599
298.15 K, x1 = 0.5992 | -0.513
298.15 K, x1 = 0.696 | -0.408
298.15 K, x1 = 0.7988 | -0.291
298.15 K, x1 = 0.8939 | -0.164
313.15 K, x1 = 0.031 | -0.128
313.15 K, x1 = 0.05 | -0.216
313.15 K, x1 = 0.0704 | -0.283
313.15 K, x1 = 0.1011 | -0.38
313.15 K, x1 = 0.1488 | -0.475
313.15 K, x1 = 0.2003 | -0.55
313.15 K, x1 = 0.2983 | -0.631
313.15 K, x1 = 0.3491 | -0.64
313.15 K, x1 = 0.3986 | -0.638
313.15 K, x1 = 0.5035 | -0.601
313.15 K, x1 = 0.5833 | -0.547
313.15 K, x1 = 0.686 | -0.459
313.15 K, x1 = 0.8053 | -0.305
313.15 K, x1 = 0.8956 | -0.162
323.15 K, x1 = 0.0299 | -0.177
323.15 K, x1 = 0.0501 | -0.266
323.15 K, x1 = 0.07 | -0.325
323.15 K, x1 = 0.1008 | -0.396
323.15 K, x1 = 0.1504 | -0.472
323.15 K, x1 = 0.2004 | -0.531
323.15 K, x1 = 0.2985 | -0.614
323.15 K, x1 = 0.3492 | -0.631
323.15 K, x1 = 0.4023 | -0.633
323.15 K, x1 = 0.5108 | -0.592
323.15 K, x1 = 0.6095 | -0.512
323.15 K, x1 = 0.6956 | -0.414
323.15 K, x1 = 0.8039 | -0.279
323.15 K, x1 = 0.8815 | -0.179

CN(C)CCO [2-(N,N-dimethylamino)ethanol] + O
Details | excess molar enthalpy [kcal/mol]
298.15 K, x1 = 0.0299 | -0.168
298.15 K, x1 = 0.0705 | -0.347
298.15 K, x1 = 0.1008 | -0.443
298.15 K, x1 = 0.1501 | -0.545
298.15 K, x1 = 0.2052 | -0.618
298.15 K, x1 = 0.301 | -0.68
298.15 K, x1 = 0.349 | -0.692
298.15 K, x1 = 0.4106 | -0.69
298.15 K, x1 = 0.4544 | -0.673
298.15 K, x1 = 0.5365 | -0.615
298.15 K, x1 = 0.6599 | -0.48
298.15 K, x1 = 0.7996 | -0.298
298.15 K, x1 = 0.9156 | -0.133
313.15 K, x1 = 0.0307 | -0.168
313.15 K, x1 = 0.0695 | -0.314
313.15 K, x1 = 0.1196 | -0.46
313.15 K, x1 = 0.2038 | -0.584
313.15 K, x1 = 0.2979 | -0.652
313.15 K, x1 = 0.349 | -0.665
313.15 K, x1 = 0.4063 | -0.663
313.15 K, x1 = 0.4925 | -0.618
313.15 K, x1 = 0.5885 | -0.526
313.15 K, x1 = 0.7046 | -0.403
313.15 K, x1 = 0.7891 | -0.295
313.15 K, x1 = 0.9076 | -0.145
323.15 K, x1 = 0.0301 | -0.158
323.15 K, x1 = 0.0705 | -0.315
323.15 K, x1 = 0.1217 | -0.436
323.15 K, x1 = 0.2027 | -0.556
323.15 K, x1 = 0.3001 | -0.629
323.15 K, x1 = 0.3486 | -0.643
323.15 K, x1 = 0.4001 | -0.641
323.15 K, x1 = 0.4995 | -0.597
323.15 K, x1 = 0.6093 | -0.489
323.15 K, x1 = 0.7618 | -0.309
323.15 K, x1 = 0.9197 | -0.111
